Experimental data from patent US5021435A, “Certain pyridyl-thiazolidin-4-one having anti-ulcer activity” (Sumitomo Pharmaceuticals Company, Limited, priority 1988, dated 1991).
In brackets after ≈: the same amount, converted by molar mass. Like-named read-outs stand apart in the source and are kept apart here.

Experiments:
[1] = test system: water-immersion and restraint stress induced gastric ulcer; assay: Antiulcer test: water-immersion and restraint stress induced gastric ulcer model in rats; format: in vivo, Sprague-Dawley strain male rats; conditions: for inhibition in vivo at 30 mg/kg / inhibition in vivo at 100 mg/kg / inhibition in vivo at 50 mg/kg: Rattus norvegicus, po, 17 h, read-out: Effect (inhibitory percentage of ulcer formation, judgement); for inhibition of stress-induced ulcer (in words): discussion statement; for Test on anti-ulceration (ulcer caused by stress), Test (1): 100 mg/kg P.O.; for inhibition in vivo at 100 mg/kg: 100 mg/kg oral
Protocol: Sprague-Dawley strain male rats (body weight: 200-250 g) fasted for 24 hours (with free access of water) were used for the test. (1) Antiulcer test Anticular effect of the compound was examined by means of water-immersion and restraint stress induced gastric ulcer model in rats. The ulcer experiment was performed in accordance with the method of Takagi and Okabe referred to hereinafter. Rats were immobilized in a restraint cage. The animals were then immersed vertically to the level of the xiphoid process in water bath (23° C.) for 17 hr and killed by deep ether anesthesia. The stomach of each rat was removed and inflated by injecting 10 ml of 1% formalin to fix the inner and outer layer of gastric wall. Subsequently, the stomach was incised along the greater curveture and the length of ulcers in glandular portion was measured. The sum of the length (mm) of each ulcer was used as an ulcer index. Test compound was suspended in 0.5% methylcellulose solution and was orally administered at a volume of 5 ml/kg to the rat 30 minutes prior to stress loading. To the control group was administered vehicle alone at the same volume. Inhibitory percentage of ulcer formation of the compound was calculated from the following formula. [formula]

PAF-induced ulcer [2] = conditions: cited from earlier work
PAF-induced ulcer [3] = assay: Test on PAF-induced ulcer; format: in vivo, Sprague-Dawley strain male rats; conditions: for Test on inhibition of PAF-induced ulcer, Test (3): rat, 100 mg/kg P.O. 30 minutes before PAF, effective = statistically significant vs control
Protocol: (§1) Sprague-Dawley strain male rats (body weight: 200-250 g) fasted for 24 hours (with free access of water) were used for the test.
(3) Test on PAF-induced ulcer
Inhibitory effect of the compound on PAF-induced ulcer was examined. PAF-induced ulcer in rat was caused by intravenous administration of 10 μg/kg of PAF. One hour after PAF administration, rat was killed under deep ether anesthesia and stomach was removed. The stomach was inflated and fixed by injecting 10 ml of 1% formalin solution and then cut open along greater curvature. Areas (mm^2) of the ulcerated portions were measured and sum of them was taken as ulcer-index. Test compound was suspended in a 0.5% methylcellulose solution and orally administered at a volume of 5 ml/kg 30 minutes before the administration of PAF. Vehicle alone was administered to control rat at the same volume with test group. With reference to the effect of the compound to inhibit ulceration, results of treated group and those of control group were compared and those which have a statistical significance was judged to be effective.

[4] = test system: PAF-induced platelet aggregation; assay: Anti-PAF test in vitro (inhibitory action on PAF-induced platelet aggregation, PRP); format: cell-based, rabbit (male Japanese white rabbits); conditions: Oryctolagus cuniculus, rabbit PRP
Protocol: The inhibition of PAF-induced platelet aggregation was examined by using a platelet-rich plasma (PRP) of rabbit according to the method of Mustard et al. [J. F. Mustard et al., J. Lab. Blin. Med., 64, 548 (1964)], which is an improved method of Born [G.V.R. Born, J. Physiol., London, 162, 67 (1962) ]. That is, 80-100 ml of blood per animal was collected from carotoid arteries of conscious male Japanese white rabbits into a polyethylene vessel containing 1/10 the volume of a 3.8% sodium citrate solution. A portion (about 3 ml) of the collected blood was centrifuged at a high speed (11,000 rpm) for 60 seconds to give a platelet-poor plasma (PPP) as supernatant. The remainder of the blood was centrifuged at a low speed (1000 rpm) for 10 minutes to give a platelet-rich plasma (PRP) as supernatant.
The degree of platelet aggregation was determined by nephelometry with an aggregometer (Hematracer, Niko Biosciene Co.) while stirring the PRP at 1000 rpm at 37° C. The degree of platelet aggregation was expressed in terms of the light transmittance (%), the value of PRP being taken as 0% and the value of […]. A portion (0.2 ml) of the PRP was placed into a glass cuvette containing a silicone-coated stirring iron bar, and 2 μl of dimethylsulfoxide was added. After 2 minutes, PAF dissolved in physiological saline containing 0.25% BSA was added to give a final PAF concentration of […], and the maximum aggregation was determined. To measure the inhibitory activity of test compounds on the platelet aggregation induced by PAF, 2 μl of a dimethylsulfoxide solution of each test compound was added in place of dimethylsulfoxide. The inhibitory percentage by the test compound of PAF-induced platelet aggregation was calculated according to the following equation and the value of IC50 was determined. [formula]

[5] = test system: centrally stimulated gastric acid secretion (baclofen); assay: Central acting inhibitory effect of gastric acid secretion: baclofen-stimulated (central); format: in vivo, Sprague-Dawley strain male rats; conditions: rat, 30 mg/kg into duodenum 2 hours before stimulant; baclofen 2 mg/kg s.c.
Protocol: as §1
(§2) (2) Test on central acting inhibitory effect of gastric acid secretion
(§3) Whether the antisecretory effect of the compound is based on central action or not was judged according to mode of antisecretory action of the compound to centrally stimulated gastric acid secretion and peripherally stimulated gastric acid secretion. […]
(§4) We determined the site of action (central or peripheral) of the compound by the result from above examination. […]
(§5) Gastric acid was collected every 20 min. by flushing the gastric lumen with 5 ml saline. The acid content of each sample was determined by titration of 0.02 N-NaOH.
(§6) Peripheral stimulation of gastric acid secretion was carried out by subcutaneous administration of 10 mg/kg of histamine or 1 mg/kg of bethanechol. […] Inhibitory percentage of acid secretion of the compound was calculated from the following formula. […]

[6] = test system: peripherally stimulated gastric acid secretion (histamine); assay: Gastric acid secretion stimulated peripherally by histamine; format: in vivo, Sprague-Dawley strain male rats; conditions: rat, 30 mg/kg into duodenum 2 hours before stimulant; histamine 10 mg/kg s.c.
Protocol: as §1, §2, §3, §4, §5, §6

[7] = test system: peripherally stimulated gastric acid secretion (bethanechol); assay: Gastric acid secretion stimulated peripherally by bethanechol; format: in vivo, Sprague-Dawley strain male rats; conditions: rat, 30 mg/kg into duodenum 2 hours before stimulant; bethanechol 1 mg/kg s.c.
Protocol: as §1, §2, §3, §4, §5, §6

[8] = rat, 30 minutes prior to stress
[9] = rat, 50 mg/kg oral, 30 minutes prior to stress

Structure (SMILES): CN/C(=N/CCSCc1nc[nH]c1C)NC#N [Cimetidine, reference compound]
- inhibition in vivo at 30 mg/kg [1]: 60 to 80%
- inhibition of stress-induced ulcer (in words) [1]: can be inhibited
- Test on anti-ulceration (ulcer caused by stress), Test (1) ([1]; rat): Effective
- inhibition of PAF-induced ulcer (in words) (PAF-induced ulcer [2]; discussion statement, Table 5 cites Nature 319, 54-56 (1986)): cannot be inhibited
- Test on inhibition of PAF-induced ulcer (PAF-induced ulcer [2]; table head 100 mg/kg P.O., (*) Nature 319, 54-56 (1986)): Ineffective

Structure (SMILES): CN1C(=O)[C@H](c2ccc(C(F)(F)F)cc2)S[C@@H]1c1cccnc1 (relative stereo) [Example 246]
- inhibition in vivo at 100 mg/kg [1, 8]: 60 to 80%

Structure (SMILES): COc1cc([C@H]2CC[C@H](c3cc(OC)c(OC)c(OC)c3)O2)cc(OC)c1OC (relative stereo) [Example L-652731, trans2,5-bis(3,4,5-trimethoxyphenyl)tetrahydrofuran, reference compound]
- inhibition of stress-induced ulcer (in words) [1]: cannot be inhibited
- Test on anti-ulceration (ulcer caused by stress), Test (1) ([1]; rat): Ineffective
- inhibition of PAF-induced ulcer (in words) (PAF-induced ulcer [3]; discussion statement): remarkably inhibited
- Test on inhibition of PAF-induced ulcer, Test (3) (PAF-induced ulcer [3]): Effective
- IC50 [4]: 0.2 µg/mL (≈ 0.494 µM)

Structure (SMILES): CN1C(=O)C(c2ccc(Cl)cc2)SC1c1cccnc1 (single isomer, unassigned) [2 (Isomer II), 5-(4-Chlorophenyl)-3-methyl-2-(3-pyridyl)-thiazolidin-4-one]
- inhibition in vivo at 50 mg/kg [1, 9]: > 80%
- Inhibitory percentage of acid secretion (judgement), stimulant baclofen [5]: +++ (Not less than 80%.)
- Inhibitory percentage of acid secretion (judgement), stimulant histamine [6]: - (Less than 40%.)
- Inhibitory percentage of acid secretion (judgement), stimulant bethanechol [7]: - (Less than 40%.)

Structure (SMILES): CN1C(=O)C(c2ccc(Cl)cc2)[S+]([O-])C1c1cccnc1 (single isomer, unassigned) [Example 30, 5-(4-chlorophenyl)-3-methyl-2-(3-pyridyl)-1-oxo-thiazolidin-4-one]
- inhibition in vivo at 50 mg/kg [1, 9]: 40 to 60%

Structure (SMILES): CN1C(=O)C(c2ccccc2F)SC1c1cccnc1 (stereo not drawn) [Example 198]
- inhibition in vivo at 100 mg/kg [1, 8]: > 80%

Structure (SMILES): CN1C(=O)C(c2ccc(Cl)cc2)[S+]([O-])C1c1cccnc1 (single isomer, unassigned) [Example 31, 5-(4-chlorophenyl)-3-methyl-2-(3-pyridyl)-1-oxo-thiazolidin-4-one]
- Effect (inhibitory percentage of ulcer formation, judgement) ([1]; rat, 50 mg/kg oral, 30 minutes prior to stress, 50 mg/kg): ++ (Not less than 60% and less than 80%.)

Structure (SMILES): COc1ccc(C2SC(c3cccnc3)N(C)C2=O)cc1 (stereo not drawn) [Example 48]
- inhibition in vivo at 50 mg/kg [1, 9]: 40 to 60%

Structure (SMILES): CN1C(=O)C(c2ccc(Cl)cc2)SC1c1cccnc1 (stereo not drawn) [Example 1, 5-(4-chlorophenyl)-3-methyl-2-(3-pyridyl)thiazolidin-4-one]
- inhibition in vivo at 50 mg/kg [1, 9]: 60 to 80%
- Test on anti-ulceration (ulcer caused by stress), Test (1) ([1]; rat): Effective
- Test on inhibition of PAF-induced ulcer, Test (3) (PAF-induced ulcer [3]): Effective
- IC50 [4]: 5.8 µg/mL (≈ 19 µM)

Structure (SMILES): CN1C(=O)[C@@H](c2ccc(Cl)cc2)S[C@H]1c1cccnc1 (single isomer, unassigned) [Example 34, (-)-cis-5-(4-chlorophenyl)-3-methyl-2-(3-pyridyl)thiazolidin-4-one]
- inhibition in vivo at 100 mg/kg [1, 8]: 60 to 80%

Structure (SMILES): O=C1NC(c2cccnc2)SC1c1ccc(Cl)cc1 (stereo not drawn) [Example 178]
- inhibition in vivo at 100 mg/kg [1, 8]: 40 to 60%

Structure (SMILES): COc1ccc(C2NC(=O)C(C)S2)cc1OC (stereo not drawn) [Mezolidon, 2-(3,4-dimethoxyphenyl)-5-methylthiazolidin-4-one, reference compound]
- inhibition in vivo at 100 mg/kg [1, 8]: < 40%
- effect by the test method employed in the present invention ([1]; statement in words): nearly ineffective

Structure (SMILES): CN1C(=O)[C@H](c2ccc(F)cc2)S[C@@H]1c1cccnc1 (relative stereo) [Example 221]
- inhibition in vivo at 100 mg/kg [1, 8]: > 80%

Structure (SMILES): CN1C(=O)C(c2ccc(Cl)cc2)SC1c1ccncc1 (stereo not drawn) [Example 46]
- inhibition in vivo at 50 mg/kg [1, 9]: 60 to 80%

Structure (SMILES): CN1C(=O)[C@@H](c2ccc(Cl)cc2)S[C@H]1c1cccnc1 (single isomer, unassigned) [Example 33, (+)-cis-5-(4-chlorophenyl)-3-methyl-2-(3-pyridyl)thiazolidin-4-one]
- inhibition in vivo at 30 mg/kg ([1]; rat, 30 mg/kg oral, 30 minutes prior to stress): > 80%

Structure (SMILES): CN1C(=O)C(c2ccccc2)SC1c1cccnc1 (stereo not drawn) [Example 52]
- inhibition in vivo at 50 mg/kg [1, 9]: 40 to 60%

Structure (SMILES): CN1C(=O)C(c2ccccc2F)[S+]([O-])C1c1cccnc1 (stereo not drawn) [Example 199]
- inhibition in vivo at 100 mg/kg [1, 8]: > 80%

Structure (SMILES): CN1C(=O)C(c2ccc(F)cc2)SC1c1cccnc1 (stereo not drawn) [Example 42]
- inhibition in vivo at 50 mg/kg [1, 9]: > 80%
- Test on anti-ulceration (ulcer caused by stress), Test (1) ([1]; rat): Effective
- Test on inhibition of PAF-induced ulcer, Test (3) (PAF-induced ulcer [3]): Effective
- IC50 [4]: 4 µg/mL (≈ 13.9 µM)
